From patent US20220348563A1, “KDM INHIBITORS AND USES THEREOF” (DANA-FARBER CANCER INSTITUTE, INC., priority 2019, published 2022)

target: T1, KDM3A (Homo sapiens, UniProt Q9Y4C1); experiment: KDM3 AlphaScreen assay (Table 2, ASSAY 9); type: biochemical; conditions: ASSAY 9
T1 sequence (Q9Y4C1 1-1321): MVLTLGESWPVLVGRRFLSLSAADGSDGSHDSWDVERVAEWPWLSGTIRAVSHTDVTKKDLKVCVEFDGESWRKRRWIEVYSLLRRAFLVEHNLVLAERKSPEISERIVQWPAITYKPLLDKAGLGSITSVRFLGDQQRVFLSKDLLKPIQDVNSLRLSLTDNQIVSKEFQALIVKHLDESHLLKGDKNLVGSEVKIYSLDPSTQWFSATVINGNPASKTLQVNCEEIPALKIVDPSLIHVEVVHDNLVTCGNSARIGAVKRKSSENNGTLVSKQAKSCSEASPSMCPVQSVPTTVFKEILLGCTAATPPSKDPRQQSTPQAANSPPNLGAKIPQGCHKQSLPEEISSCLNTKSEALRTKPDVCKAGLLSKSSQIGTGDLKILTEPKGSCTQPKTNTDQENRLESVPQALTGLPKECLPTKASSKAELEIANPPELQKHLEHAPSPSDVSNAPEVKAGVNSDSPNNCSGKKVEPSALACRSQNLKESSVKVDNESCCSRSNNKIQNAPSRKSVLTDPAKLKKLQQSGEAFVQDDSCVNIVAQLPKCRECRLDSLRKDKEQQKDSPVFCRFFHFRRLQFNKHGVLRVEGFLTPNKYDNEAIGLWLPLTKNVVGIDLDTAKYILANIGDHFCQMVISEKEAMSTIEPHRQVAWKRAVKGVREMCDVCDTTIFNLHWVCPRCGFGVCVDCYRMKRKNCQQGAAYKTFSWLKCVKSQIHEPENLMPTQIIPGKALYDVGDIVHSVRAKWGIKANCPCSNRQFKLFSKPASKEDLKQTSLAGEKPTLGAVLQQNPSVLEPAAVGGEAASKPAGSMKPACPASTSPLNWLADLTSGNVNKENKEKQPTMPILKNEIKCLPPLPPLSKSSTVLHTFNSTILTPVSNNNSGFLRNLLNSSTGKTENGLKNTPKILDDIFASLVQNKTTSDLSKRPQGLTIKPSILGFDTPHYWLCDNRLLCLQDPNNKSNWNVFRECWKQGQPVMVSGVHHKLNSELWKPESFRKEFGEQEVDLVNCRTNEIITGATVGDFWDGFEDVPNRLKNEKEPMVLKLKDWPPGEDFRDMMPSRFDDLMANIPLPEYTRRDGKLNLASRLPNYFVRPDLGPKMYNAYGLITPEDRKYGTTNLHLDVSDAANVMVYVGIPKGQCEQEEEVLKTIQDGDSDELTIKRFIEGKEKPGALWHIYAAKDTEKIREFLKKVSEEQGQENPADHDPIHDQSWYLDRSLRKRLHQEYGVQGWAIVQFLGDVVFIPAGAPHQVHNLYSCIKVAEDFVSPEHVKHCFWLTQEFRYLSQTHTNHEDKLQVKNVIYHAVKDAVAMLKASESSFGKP
Protocol: AlphaScreen assays were performed in 384-well plate format using white AlphaPlate™ (PerkinElmer®, USA), and transfer of pre-diluted compound (100 nL) was performed using a Janus® Workstation (PerkinElmer®, USA). All subsequent steps were carried out in assay buffer (50 mM 4-(2-hydroxyethyl)-1-piperazineethanesulfonic acid (HEPES), pH 7.5, 0.1% (wt/vol) bovine serum albumin (BSA) and 0.01% (vol/vol) Tween®20). In brief, 10 μL of assay buffer containing demethylase enzyme (2 nM Final) was pre-incubated for 15 min with dilutions of compound. The enzyme reaction was initiated by the addition of substrate (5 μL) consisting of L-ascorbic acid (100 μM Final), […] (OG) (5 μM Final), FAS (10 μM Final) and histone H3(1-21)K9Me3-GGK Biotin (100 nM Final). The enzyme reaction was allowed to proceed for 30 minutes and was stopped by the addition of 5 μL of assay buffer containing ethylenediaminetetraacetic acid (EDTA) (40 mM) and NaCl (1,200 mM). The final concentration of DMSO was 1%. Streptavidin donor beads (0.08 mg/ml) and protein-A-conjugated acceptor beads (0.08 mg/ml) were preincubated for 1 h with antibody to methyl mark (300 ng/mL Final), and the presence of histone H3 product methyl mark was detected using the preincubated AlphaScreen™ beads (5 μL). Detection was allowed to proceed for 2 h at room temperature, and the assay plates were read on the EnVision® 2104 plate reader. Data were normalized to the (no-enzyme) control, and the IC50 values were determined via nonlinear regression curve fit using GraphPad Prism 7.

How did the IC50 turn out when `CN(C)c1ccc(CCC(=O)Nc2ccc(C(F)(F)F)cc2C(=O)N2CCC(Oc3ccc(-c4ccc(N(C)C)cc4)cn3)CC2)cc1` [KDM3-53, 3-(4-(dimethylamino)phenyl)-N-(2-(4-((5-(4-(dimethylamino)phenyl)pyridin-2-yl)oxy)piperidine-1-carbonyl)-4-(trifluoromethyl)phenyl)propanamide] was run?
Its IC50 is 20 µM.

For `CN(C)c1ccc(CCC(=O)Nc2ccc(OC(F)(F)F)cc2C(=O)N2CCC(Oc3ccc(-c4ccc(N(C)C)cc4)cn3)CC2)cc1` [KDM3-59, 3-(4-(dimethylamino)phenyl)-N-(2-(4-((5-(4-(dimethylamino)phenyl)pyridin-2-yl)oxy)piperidine-1-carbonyl)-4-(trifluoromethoxy)phenyl)propanamide], which IC50 is on record?
Its IC50 is 23.6 µM.

With `COc1ccc(S(=O)(=O)Nc2ccc(F)cc2C(=O)N2CCC(Oc3ccc(-c4ccc(N(C)C)cc4)cn3)CC2)cc1OC` [KDM3-60] as the compound, how does the IC50 read?
Its IC50 is 35 µM.
